Laboratory results as given in patent US20250195511A1, “INDAZOLE DERIVATIVES USEFUL AS INHIBITORS OF NOD-LIKE RECEPTOR PROTEIN 3” (Merck Sharp & Dohme LLC, priority 2023, published 2025).

Tested on: NLRP3 inflammasome
Test: NLRP3 inflammasome activation: ASC-SPECK formation in gramicidin-stimulated THP-1 cells
Type: cell-based
Conditions: PMA-treated human monocytic THP-1 cells, compound 1 h before 12.5 μg/ml gramicidin, 3-hour treatment
Source text: Activation of the canonical NLRP3 inflammasome requires two steps, priming and activation. A priming signal such as a pathogen activated molecular patterns (PAMPs) or danger-activated molecular patterns (DAMPs) are recognized by Toll-like receptors leads to nuclear factor kappa B (NF-KB)-mediated signaling. […] The second step is activation which induces oligomerization of NLRP3 and subsequent assembly of NLRP3, apoptosis-associated speck-like protein containing a CARD (ASC), and procaspase-1 into an inflammasome complex. This triggers the transformation of procaspase-1 to caspase-1, and the production and secretion of mature IL-1β and IL-18 (Kim et al., J. Inflamm. 2015, 12, 41; Ozaki et al., J. Inflamm. Res. 2015, 8, 15-27; Rabeony et al., Eur. J. Immunol. 2015, 45, 2847). During inflammasome complex assembly, the oligomerization of NLRP3 triggers the nucleation of ASC and an event commonly referred to as “ASC SPECK” formation, as it is identified in the cell as a discrete puncta within the cell after staining and visualization of ASC using common immunocytochemical methods.
The ability of compounds to inhibit NLRP3 inflammasome activation was determined in vitro by monitoring formation of the ASC-SPECK in human monocytic THP-1 cells after stimulation. THP-1 cells (ATCC catalog #TIB-202) were maintained in complete growth media containing Roswell Park Memorial Institute RPMI (ATCC catalog #30-2001), 10% heat inactivated fetal bovine serum, 1× penicillin/streptomycin and 0.05 mM 2-mercaptoethanol. At the start of the assay, undifferentiated THP-1 cells were plated at a density of 20,000 cells per well in a 384-well plate (Poly-D-lysine coated Cell Carrier Ultra microplate, Perkin Elmer catalog #6057500) in complete growth media supplemented with 10 ng/ml phorbol 12-myristate 13-acetate (PMA; Sigma catalog #P8139), and then incubated overnight. The next day, media was replaced with assay media (RPMI (Gibco catalog #11875-093), 0.01% bovine serum albumin (BSA)). Compounds were serially diluted in DMSO and then added to wells one hour prior to the addition of 12.5 μg/ml Gramicidin (Enzo Lifescience, catalog #ALX-350-233-M005). All incubations were carried out at 37° C. (5% CO2/95% air). Following a 3-hour treatment with gramicidin, cells are fixed with 4% paraformaldehyde and stored at 4° C. until immunofluorescence staining.
Immunofluorescence staining: Anti-ASC antibody (MBL catalog #D086-3) was desalted and labeled with Alexa 488 antibody labeling kit (Thermo catalog #A20181) prior to use as described below. After fixation, the following steps were carried out at rt. Cells were first permeabilized with 0.3% polyethylene glycol tert-octylphenyl ether (Triton X-100) in phosphate-buffered saline (PBS) for 15 minutes and then incubated in blocking buffer containing 5% goat serum, 0.3% polyethylene glycol sorbitan monolaurate (Tween-20) and 0.03% sodium azide in PBS for 1 hour. Cells were stained with a mixture of ASC-Alexa 488 antibody (diluted 1:200 in blocking buffer) and nuclear stain DRAQ5 (1:5000 in blocking buffer, Thermo catalog #62251) in blocking buffer for 1 hour. Following a wash with 0.3% polyethylene glycol sorbitan monolaurate (Tween-20) in PBS, plates were imaged with an Opera Phenix High Content Screening System. The number of DRAQ5 positive cells containing ASC SPECKS were quantified in each well.
Data analysis: EC50 values were calculated by standard curve-fitting analysis using an internally developed program in TIBCO Spotfire software.

[1] = Homo sapiens, THP-1, inhibition of ASC SPECK formation
[2] = inhibition of ASC SPECK formation

| SMILES | EC50 [1] | EC50 [2] |
| --- | --- | --- |
| Cc1cc(C(F)(F)F)cc(O)c1-c1cnc2cn(CC3CC(=O)N(C(C)C)C3)nc2n1 (single isomer, unassigned) [Example 80, (R or S)-4-((6-(2-hydroxy-6-methyl-4-(trifluoromethyl)phenyl)-2H-pyrazolo[3,4-b]pyrazin-2-yl)methyl)-1-isopropylpyrrolidin-2-one] | – | 8 nM |
| Cc1cc(C(F)(F)F)cc(O)c1-c1cnc2cn(CC3CC(=O)N(C(C)C)C3)nc2n1 (single isomer, unassigned) [Example 81, (S or R)-4-((6-(2-hydroxy-6-methyl-4-(trifluoromethyl)phenyl)-2H-pyrazolo[3,4-b]pyrazin-2-yl)methyl)-1-isopropylpyrrolidin-2-one] | – | 437 nM |
| Cc1cc(C(F)(F)F)cc(O)c1-c1cnc2cn(C3CCP(C)(=O)CC3)nc2n1 (single isomer, unassigned) [Example 82, (1R,4R or 1S,4S)-4-(6-(2-hydroxy-6-methyl-4-(trifluoromethyl)phenyl)-2H-pyrazolo[3,4-b]pyrazin-2-yl)-1-methylphosphinane 1-oxide] | 189 nM | – |
| Cc1cc(C(F)(F)F)cc(O)c1-c1cnc2cn([C@@H]3CCOC[C@@H]3C)nc2n1 (single isomer, unassigned) [Example 85, 3-methyl-2-(2-((3R,4R or 3S,4S)-3-methyltetrahydro-2H-pyran-4-yl)-2H-pyrazolo[3,4-b]pyrazin-6-yl)-5-(trifluoromethyl)phenol] | – | 42 nM |
| Cc1cc(C(F)(F)F)cc(O)c1-c1cnc2cn([C@@H]3CCOC[C@@H]3C)nc2n1 (single isomer, unassigned) [Example 86, 3-methyl-2-(2-((3S,4S or 3R,4R)-3-methyltetrahydro-2H-pyran-4-yl)-2H-pyrazolo[3,4-b]pyrazin-6-yl)-5-(trifluoromethyl)phenol] | – | 326 nM |
| Cc1cc(C(F)(F)F)cc(O)c1-c1cnc2cn([C@H]3CCOC[C@@H]3C)nc2n1 (single isomer, unassigned) [Example 87, 3-methyl-2-(2-((3R,4S or 3S,4R)-3-methyltetrahydro-2H-pyran-4-yl)-2H-pyrazolo[3,4-b]pyrazin-6-yl)-5-(trifluoromethyl)phenol] | 564 nM | – |
| Cc1cc(C(F)(F)F)cc(O)c1-c1cnc2cn([C@H]3CCO[C@H](C)C3)nc2n1 (single isomer, unassigned) [Example 89, 3-methyl-2-(2-((2R,4S or 2S,4R)-2-methyltetrahydro-2H-pyran-4-yl)-2H-pyrazolo[3,4-b]pyrazin-6-yl)-5-(trifluoromethyl)phenol] | – | 292 nM |
| Cc1cc(C(F)(F)F)cc(O)c1-c1cnc2cn([C@H]3CCO[C@H](C)C3)nc2n1 (single isomer, unassigned) [Example 90, 3-methyl-2-(2-((2S,4R or 2R,4S)-2-methyltetrahydro-2H-pyran-4-yl)-2H-pyrazolo[3,4-b]pyrazin-6-yl)-5-(trifluoromethyl)phenol] | – | 101 nM |
| Cc1cc(C(F)(F)F)cc(O)c1-c1cnc2cn([C@H]3CCO[C@@H](C)C3)nc2n1 (single isomer, unassigned) [Example 93, 3-methyl-2-(2-((2S,4S or 2R,4R)-2-methyltetrahydro-2H-pyran-4-yl)-2H-pyrazolo[3,4-b]pyrazin-6-yl)-5-(trifluoromethyl)phenol] | – | 332 nM |
| Cc1cc(C(F)(F)F)cc(O)c1-c1cnc2cn([C@H]3CCO[C@@H](C)C3)nc2n1 (single isomer, unassigned) [Example 94, 3-methyl-2-(2-((2R,4R or 2S,4S)-2-methyltetrahydro-2H-pyran-4-yl)-2H-pyrazolo[3,4-b]pyrazin-6-yl)-5-(trifluoromethyl)phenol] | – | 92 nM |
| Cc1cc(C(F)(F)F)cc(O)c1-c1cnc2cn(C3CCOC(C)(C)C3)nc2n1 (single isomer, unassigned) [Example 95, (R or S)-2-(2-(2,2-dimethyltetrahydro-2H-pyran-4-yl)-2H-pyrazolo[3,4-b]pyrazin-6-yl)-3-methyl-5-(trifluoromethyl)phenol] | – | 388 nM |
| Cc1cc(C(F)(F)F)cc(O)c1-c1cnc2cn(C3CCOC(C)(C)C3)nc2n1 (single isomer, unassigned) [Example 96, (S or R)-2-(2-(2,2-dimethyltetrahydro-2H-pyran-4-yl)-2H-pyrazolo[3,4-b]pyrazin-6-yl)-3-methyl-5-(trifluoromethyl)phenol] | 235 nM | – |

The next lines start with the values.

| EC50 [1] | EC50 [2] | SMILES |
| --- | --- | --- |
| 198 nM | – | Cc1cc(C(F)(F)F)cc(O)c1-c1cnc2cn(C3(C)CCOC3)nc2n1 (single isomer, unassigned) [Example 78, (S or R)-3-methyl-2-(2-(3-methyltetrahydrofuran-3-yl)-2H-pyrazolo[3,4-b]pyrazin-6-yl)-5-(trifluoromethyl)phenol] |
| – | 173 nM | Cc1cc(C(F)(F)F)cc(O)c1-c1cnc2cn(C3(C)CCOC3)nc2n1 (single isomer, unassigned) [Example 79, (R or S)-3-methyl-2-(2-(3-methyltetrahydrofuran-3-yl)-2H-pyrazolo[3,4-b]pyrazin-6-yl)-5-(trifluoromethyl)phenol] |
| – | 11 nM | Cc1cc(C(F)(F)F)cc(O)c1-c1cnc2cn(C34COCC3C4)nc2n1 (single isomer, unassigned) [Example 83, 2-(2-((1R,5R or 1S,5S)-3-oxabicyclo[3.1.0]hexan-1-yl)-2H-pyrazolo[3,4-b]pyrazin-6-yl)-3-methyl-5-(trifluoromethyl)phenol] |
| – | 60 nM | Cc1cc(C(F)(F)F)cc(O)c1-c1cnc2cn(C34COCC3C4)nc2n1 (single isomer, unassigned) [Example 84, 2-(2-((1S,5S or 1R,5R)-3-oxabicyclo[3.1.0]hexan-1-yl)-2H-pyrazolo[3,4-b]pyrazin-6-yl)-3-methyl-5-(trifluoromethyl)phenol] |
| – | 291 nM | Cc1cc(C(F)(F)F)cc(O)c1-c1cnc2cn([C@H]3CCOC[C@@H]3C)nc2n1 (single isomer, unassigned) [Example 88, 3-methyl-2-(2-((3S,4R or 3R,4S)-3-methyltetrahydro-2H-pyran-4-yl)-2H-pyrazolo[3,4-b]pyrazin-6-yl)-5-(trifluoromethyl)phenol] |
| – | 60 nM | Cc1cc(C(F)(F)F)cc(O)c1-c1cnc2cn(C34CCOCC3C4)nc2n1 (single isomer, unassigned) [Example 91, 2-(2-((1R,6S or 1S,6R)-3-oxabicyclo[4.1.0]heptan-6-yl)-2H-pyrazolo[3,4-b]pyrazin-6-yl)-3-methyl-5-(trifluoromethyl)phenol] |
| – | 132 nM | Cc1cc(C(F)(F)F)cc(O)c1-c1cnc2cn(C34CCOCC3C4)nc2n1 (single isomer, unassigned) [Example 92, 2-(2-((1S,6R or 1R,6S)-3-oxabicyclo[4.1.0]heptan-6-yl)-2H-pyrazolo[3,4-b]pyrazin-6-yl)-3-methyl-5-(trifluoromethyl)phenol] |
| – | 683 nM | Cc1cc(C(F)(F)F)cc(O)c1-c1cnc2cn(C3CCOCC3(C)C)nc2n1 (single isomer, unassigned) [Example 97, (R or S)-2-(2-(3,3-dimethyltetrahydro-2H-pyran-4-yl)-2H-pyrazolo[3,4-b]pyrazin-6-yl)-3-methyl-5-(trifluoromethyl)phenol] |
| – | 237 nM | Cc1cc(C(F)(F)F)cc(O)c1-c1cnc2cn(C3CCOCC3(C)C)nc2n1 (single isomer, unassigned) [Example 98, (S or R)-2-(2-(3,3-dimethyltetrahydro-2H-pyran-4-yl)-2H-pyrazolo[3,4-b]pyrazin-6-yl)-3-methyl-5-(trifluoromethyl)phenol] |
